This is an account of results in ChEMBL document CHEMBL1136041, “Capped dipeptide alpha-ketoacid inhibitors of the HCV NS3 protease” (Bioorg Med Chem Lett, 2002).

Chain of Hepatitis C virus serine protease, NS3/NS4A (D2K2A8 whole entry): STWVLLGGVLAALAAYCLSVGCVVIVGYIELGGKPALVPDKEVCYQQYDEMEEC
Chain of Hepatitis C virus serine protease, NS3/NS4A (A3EZI9 whole entry): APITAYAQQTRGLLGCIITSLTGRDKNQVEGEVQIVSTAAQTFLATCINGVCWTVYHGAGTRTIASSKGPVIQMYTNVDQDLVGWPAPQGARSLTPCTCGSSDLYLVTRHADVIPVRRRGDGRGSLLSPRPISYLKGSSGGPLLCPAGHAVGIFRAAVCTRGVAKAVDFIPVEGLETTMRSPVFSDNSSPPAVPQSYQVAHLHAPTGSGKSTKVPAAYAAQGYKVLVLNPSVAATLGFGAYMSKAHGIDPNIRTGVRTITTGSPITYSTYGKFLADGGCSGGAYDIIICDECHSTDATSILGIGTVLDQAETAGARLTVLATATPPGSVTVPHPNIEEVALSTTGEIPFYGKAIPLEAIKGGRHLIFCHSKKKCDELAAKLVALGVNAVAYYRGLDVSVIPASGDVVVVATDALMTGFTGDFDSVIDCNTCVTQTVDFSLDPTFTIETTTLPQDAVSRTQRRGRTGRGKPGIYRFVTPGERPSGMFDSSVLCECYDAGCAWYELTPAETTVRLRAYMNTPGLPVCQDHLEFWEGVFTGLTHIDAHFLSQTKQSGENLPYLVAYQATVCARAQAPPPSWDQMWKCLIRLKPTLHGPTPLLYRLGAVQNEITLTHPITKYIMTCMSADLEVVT

The assay addresses Hepatitis C virus serine protease, NS3/NS4A (Hepatitis C virus, UniProt A3EZI9+D2K2A8). As to the kind of experiment: Inhibitory concentration evaluated against NS3/4A protease. The class given is protein-complex assay, Hepacivirus hominis.
With `CC(C)C[C@H](NC(=O)CC(c1ccccc1)c1ccccc1)C(=O)N[C@@H](CC(F)F)C(=O)C(=O)O`, the IC50 was greater than 200 µM.

In the case of `CC(C)C[C@H](NC(=O)c1cccc(Oc2ccccc2)c1)C(=O)N[C@@H](CC(F)F)C(=O)C(=O)O`, the IC50 was greater than 200 µM.

`CC(C)C[C@H](NC(=O)[C@H](O)c1ccccc1)C(=O)N[C@@H](CC(F)F)C(=O)C(=O)O` showed an IC50 of 3 µM. The same measure for `CC(C)C[C@H](NC(=O)[C@H](O)c1ccc(Cl)cc1)C(=O)N[C@@H](CC(F)F)C(=O)C(=O)O`: 13 µM. `CC(C)C[C@H](NC(=O)[C@H](O)c1ccc(C(F)(F)F)cc1)C(=O)N[C@@H](CC(F)F)C(=O)C(=O)O` showed an IC50 of 28 µM. The compound `CC(C)C[C@H](NC(=O)[C@H](O)C1CCCCC1)C(=O)N[C@@H](CC(F)F)C(=O)C(=O)O` yielded an IC50 of 7 µM. The same measure for `CC(C)C[C@H](NC(=O)[C@@H](NC(=O)OC(C)(C)C)C1CCCC1)C(=O)N[C@@H](CC(F)F)C(=O)C(=O)O`: 0.38 µM; for `CC(C)C[C@H](NC(=O)C(Sc1ccccc1)c1ccccc1)C(=O)N[C@@H](CC(F)F)C(=O)C(=O)O` (some centres not stated): 7 µM. To `CC(C)C[C@H](NC(=O)[C@H](O)c1cccs1)C(=O)N[C@@H](CC(F)F)C(=O)C(=O)O` belongs 18 µM; to `CC(C)C[C@H](NC(=O)[C@H](O)c1ccccc1Cl)C(=O)N[C@@H](CC(F)F)C(=O)C(=O)O`, 41 µM; to `CC(C)C[C@H](NC(=O)Cn1c(-c2ccccc2)nc2ccccc21)C(=O)N[C@@H](CC(F)F)C(=O)C(=O)O`, greater than 200 µM. `COc1ccc(C(Oc2ccccc2)C(=O)N[C@@H](CC(C)C)C(=O)N[C@@H](CC(F)F)C(=O)C(=O)O)cc1` (some centres not stated) returned an IC50 of 18 µM. Consider `CC(C)C[C@H](NC(=O)[C@@H](O)c1ccccc1)C(=O)N[C@@H](CC(F)F)C(=O)C(=O)O`, for which the IC50 is greater than 100 µM. To `COc1ccc([C@@H](O)C(=O)N[C@@H](CC(C)C)C(=O)N[C@@H](CC(F)F)C(=O)C(=O)O)cc1` belongs 13 µM. To `COc1ccc(C(=O)N[C@@H](CC(C)C)C(=O)N[C@@H](CC(F)F)C(=O)C(=O)O)c(OC)c1OC` belongs greater than 200 µM; to `CC(C)C[C@H](NC(=O)Cn1nc(-c2ccccc2)c2ccccc2c1=O)C(=O)N[C@@H](CC(F)F)C(=O)C(=O)O`, greater than 200 µM. In turn, `CC(C)C[C@H](NC(=O)C(Cc1ccccc1)c1ccccc1)C(=O)N[C@@H](CC(F)F)C(=O)C(=O)O` (some centres not stated) showed an IC50 greater than 30 µM.

The term IC50 denotes the concentration that inhibits the measured activity by half.
